Assay results: patent US20220031668A1, “METHODS OF INHIBITING PROCOLLAGEN-LYSINE, 2-OXOGLUTARATE 5-DIOXYGENASE 2” (University of Kentucky Research Foundation, priority 2020, published 2022)

The molecules below were run on MDA-MB-231 cells (assay: 3D culture assay of cancer cell invasion). Details: 10 μM.
Type: cell-based, human
Procedure: 3D culture assay is an established platform to study cancer cell invasion, and the ability of compounds to attenuate such cell invasion (Zhang 2015). […] The MDA-MB-231 cell line is an epithelial, human breast cancer cell line.
Briefly, to conduct the 3D culture assay, 12-well plates were coated with […], matrigel per well. After incubating the plates at 37° C. for 15 minutes, MDA-MB-231 cells were plated with about 300 cells per well. The plates were allowed to stand for 45 min in the 37° C. incubator to let the cells deposit into the matrigel. The cells were then covered with 10% matrigel, which contained test compounds. […]
`CN(C)C(=O)C(CCN1CCC(O)(c2ccc(Cl)cc2)CC1)(c1ccccc1)c1ccccc1` [Loperamide] was tested, and the “invasive growth of MDA-MB-231 cells in 3D culture” value was “inhibits invasive growth”.

Same assay, conditions: 20 μM, 3D culture for 3 days
`C[N+](C)(C)CC(O)CC(=O)O` (racemic) [DL-Carnitine] was tested, and the “inhibitory activity on breast cancer progression (invasive growth) in 3D culture” value (“inhibitory activity … in 3D culture” below) was “inhibitory activity”.
With `N=C(N)NC(=O)c1nc(Cl)c(N)nc1N` [Amiloride] the “inhibitory activity … in 3D culture” value was “inhibitory activity”.
With `CN1CCCC(n2nc(Cc3ccc(Cl)cc3)c3ccccc3c2=O)CC1` (stereo not drawn) [Azelastine] the “inhibitory activity … in 3D culture” value was “inhibitory activity”.
In the case of `O=C(O)c1cc(O)c(O)c(O)c1` [Gallic acid], the “inhibitory activity … in 3D culture” value is reported as “inhibitory activity”.
`C[N+](C)(C)C[C@H](O)CC(=O)[O-]` [L-Carnitine] was tested, and the “inhibitory activity … in 3D culture” value was “inhibitory activity”.
